How the values were obtained:
CTSK = target: T1, CTSK (Homo sapiens, UniProt P43235); test: In vitro kinetic evaluation of cathepsin inhibition, fluorescent substrate Z-FR-AMC; assay type: biochemical; settings: for mode of inhibition: CTSK
T1 sequence (P43235 115-329): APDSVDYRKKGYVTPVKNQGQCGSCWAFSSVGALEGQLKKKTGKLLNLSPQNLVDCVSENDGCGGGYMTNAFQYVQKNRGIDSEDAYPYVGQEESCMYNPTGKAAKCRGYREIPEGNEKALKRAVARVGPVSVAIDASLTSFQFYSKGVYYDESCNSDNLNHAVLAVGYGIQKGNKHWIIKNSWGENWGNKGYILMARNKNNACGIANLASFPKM
From the text: used for TLC. Phosphate Buffer Saline (PBS) was purchased from Biological Industries (pH = […]
7.4) and was used as a buffer system in all experiments if not indicated otherwise. […]
Recombinant human CTSB, CTSK, CTSL, and CTSS were supplied by B. Turk (J.
Stefan Institute).[1] […]
Fluorescent gels were scanned by a Typhoon FLA 9500 flatbed laser scanner (GE Healthcare […]
Bio-Sciences AB, Uppsala, Sweden). BioRad ChemiDox XRS+ was used for western blot […]
analysis. Olympus FV10i inverted microscope (Tokyo,Japan) with Fluoview software or Zeiss […]
Confocal LSM 980 with Airyscan (Germany) with Zen software were used for confocal […]
In vitro kinetic evaluation of labeling recombinant cathepsins:
Reactions were monitored for 30 min at 37° C in 96-well black flat-bottom microplates […]
(Greiner, Germany) using Tecan […] M1000 pro plate reader (Tecan, Switzerland), […]
substrates Z-RR-AMC (CTSL) or Z-FR-AMC (CTSS, CTSB and CTSK), and excitation and […]
(§1) emission wavelengths of 370 and 460 nm, respectively. Cathepsin concentrations in the assay were 0.4 nM (CTSK) or 5 nM (CTSS, CTSB, and CTSL). The buffer was 100 mM Na2HPO4/NaH2PO4, 50 mM NaCl, 5 mM DTT, 0,1% Peg-6000, pH 6. For irreversible inhibitors, reaction data were fitted to the one-phase association formula in GraphPad Prism 9 software: Y=Y0 + (Plateau-Y0)*(1-exp(-K*X)) where in this case Y0 and Y represent fluorescence signal at times 0 and t, respectively, K represent the observed reaction rate kobs and X the inhibitor concentration. Inactivation rates at each inhibitor concentration were […]
maximal rate of inactivation (kinact) was obtained as the asymptote from equation […]
for each X, and Kiapp is the apparent inhibition constant. Ki values were calculated from IC50 or from Kiapp using formulas Ki = Kiapp / (1 + Km/S) and IC50 = E0/2 + Kiapp, where Km stands for Michalis-Menten constant, S for substrate concentration and E0 for cathepsin concentration.
The highest inhibitor concentrations in the assay were 50 µM. Measurements were performed in several independent duplicates. Average values are presented with standard deviations. […]

CTSS = CTSS (Homo sapiens, UniProt P25774); test: Recombinant cathepsin labeling by ABPs, in-gel fluorescence; assay type: binding; settings: increasing probe concentrations, 1 h
Chain of CTSS (P25774 115-331): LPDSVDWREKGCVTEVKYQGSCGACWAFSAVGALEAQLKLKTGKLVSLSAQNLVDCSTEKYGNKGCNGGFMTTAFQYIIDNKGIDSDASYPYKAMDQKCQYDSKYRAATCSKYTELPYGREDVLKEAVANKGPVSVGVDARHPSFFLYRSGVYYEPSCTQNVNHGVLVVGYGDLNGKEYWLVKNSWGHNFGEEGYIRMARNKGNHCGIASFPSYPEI
Method: The ABPs were tested for binding to recombinant CTSK compared to the closely related CTSB, CTSL, and CTSS, which are highly abundant and active in most biological samples. Using the in‐gel fluorescent analysis that detects the stable enzyme‐probe complex, active CTSK was labeled with each of the four probes, and significant selectivity was found in three probes GD32, GD37, and GD42 (Figure 1a). […] However, the minimum amount of active CTSK the remaining probes detected was much higher, ranging from 8 to 70 ngs, (Figure 1b).
Figure 1 In vitro evaluation of CTSK targeted compounds. a) Labeling of recombinant cathepsins by ABPs. Recombinant cathepsins were treated with increasing concentrations of ABPs for 1 h. Samples were separated by SDS‐PAGE and scanned for fluorescence by a Typhoon scanner at 635/670 nm. All probes show dose‐dependent binding to the CTSK, and have lower affinity to CTSS except GD36, b) CTSK [0.5–280 ng] was labeled with the indicated ABPs [5 µM]. Incubations were performed for 1 h at 37 °C, at pH 5.5. Samples were analyzed as described in (a). c) Recombinant cathepsins B, K, L, and S [0.5 µM] were first treated with the indicated concentrations of the inhibitor GD30 or vehicle for 1 h followed by incubation with a pan cathepsin probe GB123 [1 µM] for 1 h. Samples were analyzed as described in (a). d) Quantitative analysis of CTSK inhibition by GD30 presented in (d), data represent mean values ± standard error, n = 3. e) IC50 plot of GD30 inhibition of CTSK activity. […]
as §1, with “The buffer was 100 mM Na2HPO4/NaH2PO4, 50 mM NaCl, 5 mM DTT, 0,1% Peg-6000, pH 6.” left out, “concentration.” for “concentration. Inactivation rates at each inhibitor concentration were”
reaction was stopped and samples were analyzed as described above. […]

mode of inhibition (CTSK)	Ki (CTSK; CTSK 0.4 nM, pH 6, 37 °C) [nM]	kinact (CTSK; CTSK 0.4 nM, pH 6, 37 °C) [s⁻¹]	kinact/Ki (CTSK; CTSK 0.4 nM, pH 6, 37 °C)	IC50 (CTSK; CTSK 0.4 nM, tight binding) [nM]	Structure (SMILES)	labeling of CTSS relative to CTSK (CTSS)
Irreversible	3.6	0.0007 ± 0.0001	26 ± 14 × 10^4 M^−1sec^−1		C#CCNC(=O)[C@H](CC(C)C)N[C@@H](c1ccc(-c2ccc(S(=O)(=O)CCNC(=O)CCCCC[N+]3=C(/C=C/C=C/C=C4/N(C)c5ccc(S(=O)(=O)O)cc5C4(C)C)C(C)(C)c4cc(S(=O)(=O)O)ccc43)cc2)cc1)C(F)(F)F [GD32]	only labeled CTSS at higher concentrations
Reversible [Tight binding]				0.4	CC(C)C[C@H](N[C@@H](c1ccc(-c2ccc(S(=O)(=O)CCNC(=O)CCCCC[N+]3=C(/C=C/C=C/C=C4/N(C)c5ccc(S(=O)(=O)O)cc5C4(C)C)C(C)(C)c4cc(S(=O)(=O)O)ccc43)cc2)cc1)C(F)(F)F)C(=O)NC1(C#N)CC1 [GD37]	only labeled CTSS at higher concentrations
